Source: paper PMC10791743, “Selective CK1α degraders exert antiproliferative activity against a broad range of human cancer cell lines” (Nature Communications, 2024)
Values joined by “and” are separate entries in the source; they are usually repeats but may differ in a detail not shown here. Equal entries are not always repeated. Where two headings read alike, the source gives them in different places.

Columns and labels:
MDR1 (P-gp) = test: MDCKII-MDR1 cell-based permeability assay; format: in vitro ADME; details: dog, MDCK-MDR1, pH 7.4
Protocol: (§1) page 30: ADME Methods Aqueous solubility assay: Solubility assays were conducted using a Biomek FX lab automation workstation (Beckman Coulter, Inc., Fullerton, CA) and μSOL Evolution software (pION Inc., Woburn, MA). In a 96-well microplate (Cat. No: 3363, Corning Incorporated, Salt Lake, UT), 10 μL of a 10 mM test compound stock in DMSO was added to 190 μL 1-propanol (Thermo Scientific, spectroscopy, Cat. No: 434360010, Fair Lawn, NJ) to create a reference stock plate. From this reference stock plate, 5 μL solutions were mixed with 70 μL 1-propanol and 75 μL Dulbecco's Phosphate Buffered Saline (DPBS, 1X, GibcoTM, Cat. No: 14190-144, Thermo Fisher Scientifics, Waltham, MA) to generate the reference plate (high sensitivity UV plate, Cat. No: 110286, pION Inc., Woburn, MA). In a 96-well storage plate (Cat. No: 201276-100, Agilent, Santa Clara, CA), 6 μL of a 10 mM test compound stock was added to 600 μL buffer, mixed, sealed, and incubated at room temperature for 18 hours. Following incubation, the suspension was filtered through a 96-well filter plate (PVDF, 0.2 μM, Cat. No: 110037, pION Inc., Woburn, MA). The filtrate (75 μL) was combined with 75 μL 1-propanol to create the sample plate. UV spectra of the reference and sample plates were then read, and calculations based on the area under the curve (AUC) of the UV spectra were performed using μSOL Evolution software. All compounds were tested in triplicate wells. MDCKII-MDR1 cell-based permeability assay: High-throughput […]1 permeability assay was performed in the Transwell® 0.4 μm polycarbonate membrane 96-well system with modified methods1,2, […]1 cells were maintained at 37 °C in a humidified incubator with an atmosphere of 5% CO2. The cells were cultured in 75 cm2 flasks with Eagle's Minimum Essential Medium (EMEM) containing 10% fetal bovine serum (FBS), 1% non-essential amino acids (NEAA), 100 units/mL of penicillin, and 100 μg/mL of streptomycin. The […]1 cells were seeded onto inserts at a density of 1×10^4 cells/insert separately. The medium in the wells was changed every other day, and the trans epithelial electrical resistance (TEER) value was measured page 31: using a REMS Autosampler (World Precision Instruments, Sarasota, […]1 cells were grown for 5 days to reach a consistent confluency level monitored by epithelial voltohmmeter to confirm the intactness of the confluent polarized monolayer. For transport experiments, each cultured monolayer on the 96-well plate was washed twice with a transport buffer (HBSS/25 mM […] The cell-based permeability assay was initiated by the addition of each compound solution (10 μmol/L) into inserts (apical side, A) or receivers (basolateral side, B). After incubated […] (if basal to apical permeability), and concentrations were assessed by UPLC/MS (Waters; Milford, MA). All compounds were tested in triplicates. The A→B (or B→A) apparent permeability coefficients (Papp) of each compound were calculated using the equation (3): […], where dQ/dt equals the flux of a drug across the monolayer, the parameters of A equals the surface area of total insert well, and C0 is the initial concentration of substrate in the donor compartment. The efflux ratio was determined by dividing the Papp in the B-A direction by the Papp in the A-B direction. […] NADPH regenerating agent solutions A and B (Corning GentestTM, Cat. No: 451220) were purchased from Discovery Labware (Woburn, MA). Mouse liver microsomes (CD-1, pooled, GibcoTM, Cat. No: MSMCPL) were obtained from Thermo Fisher Scientific (Fredrick, MD). Pooled human liver microsomes (mixed gender, Cat. No: E0630) were purchased from XenoTech (Lenexa, KS). Stock solutions of test compounds were prepared at 10 mM in DMSO. Sample preparation for microsomal stability was modified from Di's publications3,4. […] and 4 hours) by Labcyte Echo 650 acoustic dispenser (Beckman Coulter Life Sciences, Indianapolis, IN). All compounds were tested in triplicate per time point. […]

[1] = Pharmacokinetics in female CD1 mice; format: in vivo, mouse; details: mouse; for half-life: CD1, mouse, plasma
Protocol: Three mice were housed in each cage. […] Temperature and humidity were recorded by an auto-controlled data logger system. All the animals were provided a laboratory rodent diet (Altromin, Germany). Reverse osmosis water treated with ultraviolet light was provided ad libitum. Total 27 mice (n = 9/group) were divided into three groups as Group 1, Group 2, and Group 3 with a sparse sampling design (3 mice/time points). […] The formulation vehicle for IV was 5% v/v NMP, 5% v/v Solutol HS-15 and 90% v/v Normal saline, and for PO & IP was 10%v/v NMP, 10%v/v Solutol HS-15. 50%v/v PEG-400 and 30%v/v HPβCD (20%w/v) in saline. […] Immediately after blood collection, plasma was harvested by centrifugation at 12,300×g, 10 min at 4 °C and samples were stored at −70 ± 10 °C until bioanalysis. Concentrations of SJ3149 in mouse plasma samples were determined by fit-for-purpose LC–MS/MS method. Non-Compartmental-Analysis tool of Phoenix WinNonlin® (Version 8.3) was used to assess the pharmacokinetic parameters. Peak plasma concentration (Cmax) and time for the peak plasma concentration (Tmax) were the observed values. The area under the concentration–time curve (AUClast) was calculated by the linear trapezoidal rule. The terminal elimination rate constant, ke was determined by regression analysis of the linear terminal portion of the log plasma concentration-time curve. Clearance was estimated as Dose/AUCinf and Vss as CL*MRT.

MDCKII-MDR1 cells = test: MDCKII-MDR1 cell-based permeability assay; format: in vitro ADME
Protocol: as §1

[2] = female, CD1, plasma, IP 50 mg/kg
[3] = female, CD1, plasma, IV 3 mg/kg
[4] = female, CD1, plasma, PO 50 mg/kg

O=C1CCC(N2Cc3cc(Nc4noc5ccccc45)ccc3C2=O)C(=O)N1 (centres unmarked) [SJ3149]
Papp A→B at 1 h, 10 μmol/L (MDR1 (P-gp); apical to basolateral, read-out: MDCK-MDR1 AB): 27.7 ×10⁻⁶ cm/s
Papp B→A at 1 h, 10 μmol/L (MDR1 (P-gp); basolateral to apical, read-out: MDCK-MDR1 BA): 36.5 ×10⁻⁶ cm/s
T1/2 ([1]; PO 50 mg/kg, 50 mg/kg): 154 min
half-life ([1]; female, ip, 50 mg/kg, IP 50 mg/kg): 185 min
half-life ([1]; female, iv, 3 mg/kg, IV 3 mg/kg): 46.2 min
half-life ([1]; female, po, 50 mg/kg, PO 50 mg/kg): ~180 min
AUC(0-t) [1, 2]: 17000 ng·h/mL
Tmax [1, 2]: 15 min
bioavailability [1, 2]: 74%
Cmax ([1]; female, CD1, plasma, IP 50 mg/kg, read-out: C0/Cmax): 6680 ng/mL
AUC(0-t) [1, 3]: 1370 ng·h/mL
clearance [1, 3]: 36.2 mL/min/kg
Cmax ([1]; female, CD1, plasma, IV 3 mg/kg, read-out: C0/Cmax (C0 back extrapolated)): 4510 ng/mL
Vd ([1]; female, CD1, plasma, IV 3 mg/kg, read-out: Vss): 0.67 L/kg
AUC(0-t) [1, 4]: 2850 ng·h/mL
Tmax [1, 4]: 15 min
bioavailability [1, 4]: 12%
Cmax ([1]; female, CD1, plasma, PO 50 mg/kg, read-out: C0/Cmax): 4740 ng/mL
Cmax ([1]; female, CD1, plasma, PO 50 mg/kg, read-out: C0/Cmax (molar)): 12.6 µM

O=C1CCC(N2Cc3cc(Nc4noc5ccccc45)ccc3C2=O)C(=O)N1 (centres unmarked) [SJ001043149-1]
Papp (*10^6 cm/s), A2B, single replicate (MDCKII-MDR1 cells; A2B): 35.9761 *10^6 cm/s and 11.2244 *10^6 cm/s and 35.8135 *10^6 cm/s
Papp (nm/s), A2B, single replicate (MDCKII-MDR1 cells; A2B): 359.761 nm/s and 112.244 nm/s and 358.135 nm/s
AVG Papp A 2 B (MDCKII-MDR1 cells; A2B, average of 3): 27.6713 ×10⁻⁶ cm/s
Papp (*10^6 cm/s), B2A, single replicate (MDCKII-MDR1 cells; B2A): 44.7992 *10^6 cm/s and 31.6544 *10^6 cm/s and 32.9997 *10^6 cm/s
Papp (nm/s), B2A, single replicate (MDCKII-MDR1 cells; B2A): 447.992 nm/s and 316.544 nm/s and 329.997 nm/s
Efflux Ratio (MDCKII-MDR1 cells; B2A / A2B): 1.318
AVG Papp B 2 A (MDCKII-MDR1 cells; B2A, average of 3): 36.4845 ×10⁻⁶ cm/s
